Reference: paper PMC8766756, “Insights on Cancer Cell Inhibition, Subcellular Activities, and Kinase Profile of Phenylacetamides Pending 1H-Imidazol-5-One Variants” (Frontiers in Pharmacology, 2022)
Values joined by “and” are separate entries in the source; they are usually repeats but may differ in a detail not shown here. Identical values can stand only once.

Legend:
Assay in all cases: PamChip tyrosine kinase microarray
Type in all cases: biochemical
Conditions in all cases: 0.1 µM, HL60 lysate
BTK (Q06187) = target: T1, BTK (Q06187) (Homo sapiens, UniProt Q06187)
T1 construct: purchased PamGene (PamChip PTK array, Upstream Kinase Analysis)
T1 sequence (Q06187 whole entry): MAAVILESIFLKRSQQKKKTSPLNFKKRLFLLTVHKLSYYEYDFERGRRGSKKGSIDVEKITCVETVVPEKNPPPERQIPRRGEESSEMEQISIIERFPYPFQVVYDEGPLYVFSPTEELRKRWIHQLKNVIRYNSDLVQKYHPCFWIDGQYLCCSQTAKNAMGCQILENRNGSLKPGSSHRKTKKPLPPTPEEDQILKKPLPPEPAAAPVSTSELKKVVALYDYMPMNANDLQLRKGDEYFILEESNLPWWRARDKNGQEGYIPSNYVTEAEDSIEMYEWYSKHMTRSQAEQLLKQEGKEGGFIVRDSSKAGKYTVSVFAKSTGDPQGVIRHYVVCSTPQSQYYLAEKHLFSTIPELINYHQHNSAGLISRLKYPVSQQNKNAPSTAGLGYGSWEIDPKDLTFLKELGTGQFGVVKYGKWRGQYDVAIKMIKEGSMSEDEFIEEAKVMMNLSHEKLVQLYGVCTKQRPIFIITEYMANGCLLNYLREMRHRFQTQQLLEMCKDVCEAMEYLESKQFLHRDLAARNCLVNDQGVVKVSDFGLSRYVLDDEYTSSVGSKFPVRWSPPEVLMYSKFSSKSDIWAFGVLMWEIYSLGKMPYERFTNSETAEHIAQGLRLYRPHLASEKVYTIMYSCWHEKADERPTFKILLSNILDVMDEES
Outline: (§1)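 HL60 (AML) cell lysate was spiked with compound at 0.001, 0.01, 0.1, 1, 10 and 50 µM, or 2% v/v DMSO as control, then profiled in technical replicates on a tyrosine kinase peptide array of 196 phosphosites. Kinase activity was inferred from peptide-set changes using an upstream kinase tool.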

JAK3 (P52333) = target: T2, JAK3 (P52333) (Homo sapiens, UniProt P52333)
T2 construct: purchased PamGene (PamChip PTK array, Upstream Kinase Analysis)
T2 sequence (P52333 1-1124): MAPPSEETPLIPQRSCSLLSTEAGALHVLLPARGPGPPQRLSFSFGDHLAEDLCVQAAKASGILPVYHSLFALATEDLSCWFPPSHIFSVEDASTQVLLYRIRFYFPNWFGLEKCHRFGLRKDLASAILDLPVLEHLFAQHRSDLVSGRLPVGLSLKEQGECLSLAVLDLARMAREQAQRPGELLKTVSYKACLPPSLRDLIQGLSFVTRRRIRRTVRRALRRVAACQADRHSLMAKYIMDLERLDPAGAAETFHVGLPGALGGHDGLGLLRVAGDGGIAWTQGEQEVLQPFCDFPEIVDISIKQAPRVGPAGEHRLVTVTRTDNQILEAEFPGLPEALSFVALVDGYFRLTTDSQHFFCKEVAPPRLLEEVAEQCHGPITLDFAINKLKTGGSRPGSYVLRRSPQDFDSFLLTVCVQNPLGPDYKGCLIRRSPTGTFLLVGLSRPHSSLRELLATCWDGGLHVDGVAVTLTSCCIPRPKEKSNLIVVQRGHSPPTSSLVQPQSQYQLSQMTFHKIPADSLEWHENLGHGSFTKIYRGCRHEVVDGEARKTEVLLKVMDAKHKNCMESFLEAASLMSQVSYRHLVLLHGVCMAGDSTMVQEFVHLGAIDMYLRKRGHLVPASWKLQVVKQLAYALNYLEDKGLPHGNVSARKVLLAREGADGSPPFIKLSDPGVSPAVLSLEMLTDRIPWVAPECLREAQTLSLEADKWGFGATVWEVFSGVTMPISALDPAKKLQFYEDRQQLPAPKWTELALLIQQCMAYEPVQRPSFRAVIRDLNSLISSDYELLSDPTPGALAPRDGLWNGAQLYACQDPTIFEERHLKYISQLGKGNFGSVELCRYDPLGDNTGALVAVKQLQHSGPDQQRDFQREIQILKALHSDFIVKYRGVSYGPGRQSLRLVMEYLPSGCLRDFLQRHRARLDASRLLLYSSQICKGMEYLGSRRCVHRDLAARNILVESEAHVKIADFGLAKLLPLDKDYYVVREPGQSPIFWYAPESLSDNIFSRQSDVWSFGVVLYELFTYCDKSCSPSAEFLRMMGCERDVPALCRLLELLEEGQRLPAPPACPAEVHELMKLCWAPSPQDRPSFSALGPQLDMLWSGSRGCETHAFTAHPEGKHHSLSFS
Outline: as §1

Met (P08581) = target: T3, Met (P08581) (Homo sapiens, UniProt P08581)
T3 construct: purchased PamGene (PamChip PTK array, Upstream Kinase Analysis)
T3 sequence (P08581 25-1390): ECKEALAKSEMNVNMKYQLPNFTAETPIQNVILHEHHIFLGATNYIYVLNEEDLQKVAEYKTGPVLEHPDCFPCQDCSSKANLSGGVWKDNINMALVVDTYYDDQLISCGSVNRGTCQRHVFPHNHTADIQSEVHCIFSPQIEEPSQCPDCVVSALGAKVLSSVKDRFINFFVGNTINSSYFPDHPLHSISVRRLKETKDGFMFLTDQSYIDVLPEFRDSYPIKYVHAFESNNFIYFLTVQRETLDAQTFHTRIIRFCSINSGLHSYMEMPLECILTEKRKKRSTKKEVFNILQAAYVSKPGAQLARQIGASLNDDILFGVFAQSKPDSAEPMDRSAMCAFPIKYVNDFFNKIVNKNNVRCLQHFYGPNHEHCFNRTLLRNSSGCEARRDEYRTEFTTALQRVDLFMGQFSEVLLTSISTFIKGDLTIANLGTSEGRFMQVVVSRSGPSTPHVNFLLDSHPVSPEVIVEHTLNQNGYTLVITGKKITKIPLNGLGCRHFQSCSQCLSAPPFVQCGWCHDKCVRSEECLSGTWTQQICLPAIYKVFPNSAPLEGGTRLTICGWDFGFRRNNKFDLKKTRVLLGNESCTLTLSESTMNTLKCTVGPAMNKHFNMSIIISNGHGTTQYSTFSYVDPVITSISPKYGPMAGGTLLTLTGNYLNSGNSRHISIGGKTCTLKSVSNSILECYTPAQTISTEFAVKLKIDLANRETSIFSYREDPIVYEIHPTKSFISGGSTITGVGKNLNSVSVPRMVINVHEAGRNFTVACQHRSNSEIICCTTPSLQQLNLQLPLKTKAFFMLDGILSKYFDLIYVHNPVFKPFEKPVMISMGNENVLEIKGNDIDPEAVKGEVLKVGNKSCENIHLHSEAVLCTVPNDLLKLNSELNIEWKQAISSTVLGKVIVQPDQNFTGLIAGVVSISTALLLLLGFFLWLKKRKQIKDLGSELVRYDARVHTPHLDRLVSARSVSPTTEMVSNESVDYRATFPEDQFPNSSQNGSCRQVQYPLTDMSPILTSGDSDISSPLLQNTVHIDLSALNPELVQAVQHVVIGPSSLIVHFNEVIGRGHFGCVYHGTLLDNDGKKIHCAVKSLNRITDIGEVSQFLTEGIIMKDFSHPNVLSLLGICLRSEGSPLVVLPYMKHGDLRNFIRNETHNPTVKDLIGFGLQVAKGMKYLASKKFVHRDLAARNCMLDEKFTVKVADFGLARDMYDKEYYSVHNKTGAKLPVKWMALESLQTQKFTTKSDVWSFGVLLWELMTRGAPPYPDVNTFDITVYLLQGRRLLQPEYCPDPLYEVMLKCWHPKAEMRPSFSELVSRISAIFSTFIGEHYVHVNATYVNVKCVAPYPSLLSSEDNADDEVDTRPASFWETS
Outline: as §1

Ros (P08922) = target: T4, Ros (P08922) (Homo sapiens, UniProt P08922)
T4 construct: purchased PamGene (PamChip PTK array, Upstream Kinase Analysis)
T4 sequence (P08922 28-2347): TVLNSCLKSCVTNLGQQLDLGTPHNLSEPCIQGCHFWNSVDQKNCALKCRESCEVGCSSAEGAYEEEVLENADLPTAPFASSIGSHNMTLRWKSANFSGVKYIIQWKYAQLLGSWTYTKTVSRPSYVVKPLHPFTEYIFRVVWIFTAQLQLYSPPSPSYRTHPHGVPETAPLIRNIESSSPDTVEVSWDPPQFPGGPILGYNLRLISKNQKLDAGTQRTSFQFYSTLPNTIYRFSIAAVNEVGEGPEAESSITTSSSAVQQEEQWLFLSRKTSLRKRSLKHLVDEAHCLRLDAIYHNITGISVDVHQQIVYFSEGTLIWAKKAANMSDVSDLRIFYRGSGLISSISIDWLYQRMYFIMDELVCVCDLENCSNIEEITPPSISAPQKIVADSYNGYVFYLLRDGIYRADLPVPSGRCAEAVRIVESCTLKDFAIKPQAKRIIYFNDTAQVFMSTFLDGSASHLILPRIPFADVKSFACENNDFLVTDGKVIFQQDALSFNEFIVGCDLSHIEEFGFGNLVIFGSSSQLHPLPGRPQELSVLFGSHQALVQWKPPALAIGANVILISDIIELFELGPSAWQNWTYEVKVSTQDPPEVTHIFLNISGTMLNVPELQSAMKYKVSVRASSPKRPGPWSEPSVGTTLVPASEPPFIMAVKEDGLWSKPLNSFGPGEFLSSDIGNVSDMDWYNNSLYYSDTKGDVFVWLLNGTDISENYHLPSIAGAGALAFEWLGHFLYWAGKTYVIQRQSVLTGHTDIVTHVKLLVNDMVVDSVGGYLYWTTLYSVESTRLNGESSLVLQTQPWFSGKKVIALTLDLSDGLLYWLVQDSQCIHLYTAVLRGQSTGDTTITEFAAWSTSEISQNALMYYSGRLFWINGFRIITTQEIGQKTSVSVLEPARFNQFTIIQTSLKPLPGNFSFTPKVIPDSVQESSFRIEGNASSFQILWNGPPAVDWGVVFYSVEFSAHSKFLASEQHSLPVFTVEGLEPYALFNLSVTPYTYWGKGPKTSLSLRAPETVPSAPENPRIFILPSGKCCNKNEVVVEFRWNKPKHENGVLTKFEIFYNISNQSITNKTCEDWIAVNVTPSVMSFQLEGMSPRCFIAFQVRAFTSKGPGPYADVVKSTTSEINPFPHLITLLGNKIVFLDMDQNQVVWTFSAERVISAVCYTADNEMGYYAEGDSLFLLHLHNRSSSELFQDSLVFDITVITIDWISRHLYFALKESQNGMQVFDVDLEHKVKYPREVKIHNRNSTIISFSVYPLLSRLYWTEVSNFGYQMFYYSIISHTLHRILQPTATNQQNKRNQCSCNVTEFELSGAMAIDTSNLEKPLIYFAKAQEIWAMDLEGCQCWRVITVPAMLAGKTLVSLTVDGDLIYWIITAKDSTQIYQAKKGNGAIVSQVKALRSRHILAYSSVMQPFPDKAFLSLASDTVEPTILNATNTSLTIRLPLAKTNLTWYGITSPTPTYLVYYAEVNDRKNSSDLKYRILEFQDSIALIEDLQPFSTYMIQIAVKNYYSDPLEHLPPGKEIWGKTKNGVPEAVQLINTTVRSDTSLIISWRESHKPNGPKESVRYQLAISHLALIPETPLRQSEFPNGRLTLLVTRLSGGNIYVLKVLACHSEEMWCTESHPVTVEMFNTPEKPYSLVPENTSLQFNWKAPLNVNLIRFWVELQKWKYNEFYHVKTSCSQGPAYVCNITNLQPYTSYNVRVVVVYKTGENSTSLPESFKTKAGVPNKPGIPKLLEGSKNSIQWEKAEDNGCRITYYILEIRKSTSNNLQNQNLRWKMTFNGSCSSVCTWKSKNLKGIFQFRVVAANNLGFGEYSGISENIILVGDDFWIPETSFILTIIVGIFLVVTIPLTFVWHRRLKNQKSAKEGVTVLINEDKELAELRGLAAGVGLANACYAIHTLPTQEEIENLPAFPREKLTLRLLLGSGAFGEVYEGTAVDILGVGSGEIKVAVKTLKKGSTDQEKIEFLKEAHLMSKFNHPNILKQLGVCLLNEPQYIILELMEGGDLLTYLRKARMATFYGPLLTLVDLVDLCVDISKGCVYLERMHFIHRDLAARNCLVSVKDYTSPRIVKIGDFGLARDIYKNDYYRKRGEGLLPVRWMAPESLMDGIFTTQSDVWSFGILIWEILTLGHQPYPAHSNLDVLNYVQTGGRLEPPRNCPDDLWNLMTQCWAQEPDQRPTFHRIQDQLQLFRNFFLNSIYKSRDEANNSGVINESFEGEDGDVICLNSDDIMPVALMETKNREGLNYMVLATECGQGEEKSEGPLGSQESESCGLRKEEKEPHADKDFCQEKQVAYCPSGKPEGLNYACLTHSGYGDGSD
Outline: as §1

TRKC (Q16288) = target: T5, TRKC (Q16288) (Homo sapiens, UniProt Q16288)
T5 construct: purchased PamGene (PamChip PTK array, Upstream Kinase Analysis)
T5 sequence (Q16288 32-839): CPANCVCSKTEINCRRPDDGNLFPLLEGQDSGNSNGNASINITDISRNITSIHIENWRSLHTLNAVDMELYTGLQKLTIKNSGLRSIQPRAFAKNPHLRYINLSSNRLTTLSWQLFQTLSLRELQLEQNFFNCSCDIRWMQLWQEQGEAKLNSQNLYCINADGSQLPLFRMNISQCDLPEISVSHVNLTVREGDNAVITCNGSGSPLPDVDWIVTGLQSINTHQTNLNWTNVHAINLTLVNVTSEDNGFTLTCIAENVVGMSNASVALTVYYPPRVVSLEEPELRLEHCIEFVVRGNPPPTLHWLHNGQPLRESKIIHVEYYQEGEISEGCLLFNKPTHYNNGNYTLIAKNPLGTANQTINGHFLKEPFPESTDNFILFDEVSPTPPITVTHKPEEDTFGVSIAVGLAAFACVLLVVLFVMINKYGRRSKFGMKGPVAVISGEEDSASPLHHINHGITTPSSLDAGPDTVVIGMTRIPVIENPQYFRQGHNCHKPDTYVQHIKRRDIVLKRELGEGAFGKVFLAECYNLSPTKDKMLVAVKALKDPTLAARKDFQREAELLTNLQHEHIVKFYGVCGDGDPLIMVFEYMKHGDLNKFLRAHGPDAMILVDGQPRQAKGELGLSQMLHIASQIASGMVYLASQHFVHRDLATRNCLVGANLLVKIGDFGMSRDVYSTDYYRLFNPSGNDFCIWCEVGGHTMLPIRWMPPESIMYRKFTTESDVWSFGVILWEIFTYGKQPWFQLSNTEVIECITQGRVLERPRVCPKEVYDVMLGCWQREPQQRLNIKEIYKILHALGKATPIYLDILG
Outline: as §1

## COc1ccc(/C=C2\N=C(C)N(c3ccc(CC(=O)NCc4ccccc4)cc3)C2=O)cc1 [Compound 4c, (Z)-N-Benzyl-2-(4-(4-(4-methoxybenzylidene)-2-methyl-5-oxo-4,5-dihydro-1H-imidazol-1-yl)phenyl)acetamide]
BTK (Q06187)
  Mean Significance Score: 1.957
  Mean Specificity Score: 0.668
BTK (Q06187); listed as KIM-161
  Mean Final score (Kinase score): 2.76 and 2.762
JAK3 (P52333)
  Mean Final score (Kinase score): 1.746
  Mean Kinase Statistic: -1.15
  Mean Significance Score: 1.478
  Mean Specificity Score: 0.2986
Met (P08581)
  Mean Final score (Kinase score): 2.5
  Mean Kinase Statistic: -1.184
  Mean Significance Score: 2.048
  Mean Specificity Score: 0.4367
Ros (P08922)
  Mean Significance Score: 1.955
  Mean Specificity Score: 0.9862
Ros (P08922); listed as KIM-161
  Mean Final score (Kinase score): 2.90 and 2.9031
TRKC (Q16288)
  Mean Final score (Kinase score): 2.207
  Mean Kinase Statistic: -1.079
  Mean Significance Score: 2.048
  Mean Specificity Score: 0.1464
